The record followed here is patent USRE47428E1, “Modulators of methyl modifying enzymes, compositions and uses thereof” (Constellation Pharmaceuticals, Inc., priority 2013, dated 2019).

For one experiment, the target named is Y641N EZH2 (Homo sapiens, UniProt Q15910, Y641N). As to the kind of experiment: Y641N EZH2 assay, H3K27Me2 oligonucleosomes as substrate. The experiment is classed as biochemical. On the procedure:
(§1) Assays were carried out by mixing rPRC2 together with biotinylated oligonucleosome substrates in the presence of the radio-labeled enzyme co-factor, S-adenosyl-L-methionine (^3H SAM) (Perkin Elmer) and monitoring the enzymatically mediated transfer of tritiated methyl groups from ^3H SAM to histone lysine residues. The amount of resulting tritiated methyl histone product was measured by first capturing the biotinylated oligonucleosomes in streptavidin (SAV) coated FlashPlates (Perkin Elmer), followed by a wash step to remove un-reacted ^3H SAM, and then counting on a TopCount NXT 384 well plate scintillation counter (Perkin Elmer). The final assay conditions for EZH2 were as follows: 50 mM Tris Buffer pH 8.5, 1 mM DTT, 69 μM Brij-35 detergent, 5.0 mM MgCl2, 0.1 mg/mL BSA, 0.2 μM ^3H SAM, 0.2 μM biotinylated oligonucleosomes, 3.6 μM H3K27me3 peptide and 2 nM EZH2.
(§2) A 12.5 μL volume of the HMT enzyme, H3K27me3 peptide and oligonucleosome substrate in assay buffer was added to each well of the assay plate using a Multidrop Combi (Thermo-Fisher). Compounds were pre-incubated with the enzyme for 20 min, followed by initiation of the methyltransferase reaction by addition of 12.5 μL of ^3H SAM in assay buffer (final volume=25 μL). The final concentrations of compounds ranged from a top default concentration of 80 μM down to 0.16 μM in ten 2-fold dilution steps. Reactions were carried out for 60 minutes and quenched with 20 μL per well of 1.96 mM SAH, 50 mM Tris pH 8.5, 200 mM EDTA. Stopped reactions were transferred to SAV coated Flash-plates (Perkin Elmer), incubated for 120 min, washed with a plate washer, and then read on the TopCount NXT (1.0 min/well) to measure the amount of methyl histone product formed during the reaction.

The next experiment concerns the target EZH2 (Homo sapiens, UniProt Q15910). The experiment is described as follows: EZH2 assay: rPRC2 methyltransferase, 3H SAM FlashPlate. The experiment is classed as biochemical. The settings on record: 0.2 μM 3H SAM, 2 nM EZH2. Here is the method:
as §1, §2

Experiment [1] relates to Karpas422 human lymphoma xenograft. The experiment is described as follows: Tumor growth inhibition, subcutaneous Karpas422 human lymphoma xenograft model. The settings on record: 160 mg/kg; for TGI (%) / T/C (%) / Tumor Size (mm3) on day 25: Karpas422 xenograft; for TGI (%) / T/C (%): CB-17 SCID mice; for TGI (%) / T/C (%) / Significance: day 25; for T/C (%): treated/control mean tumor volume; for Tumor Size (mm3) on day 25: female CB-17 SCID mice, day 25 after start of treatment, Mean ± SEM; for Significance: one-way ANOVA vs vehicle, tumor volume. The experiment is classed as in vivo, Mus Musculus. On the procedure:
Number of animals: 50 mice plus spare
Animal supplier: Shanghai SLAC Laboratory Animal Co., LTD.
The Karpas422 tumor cells were maintained in vitro as suspension culture in RPMI1640 medium supplemented with 10% heat inactivated fetal calf serum at 37° C. in an atmosphere of 5% CO2 in air. The tumor cells were routinely subcultured twice weekly. The cells growing in an exponential growth phase were harvested and counted for tumor inoculation.
Each mouse was inoculated subcutaneously at the right flank with the Karpas422 tumor cells (5×10^6) in 0.2 ml of PBS with Matrigel (1:1) for tumor development. Day 23 after tumor inoculation was as day 0 after the start of treatment when the average tumor size reached approximately 300 mm^3. Each group consisted of 10 tumor-bearing mice.
Tumor size was measured three times weekly in two dimensions using a caliper, and the volume was expressed in mm^3 using the formula: V=0.536a×b^2 where a and b are the long and short diameters of the tumor, respectively. The tumor size was then used for calculations of T/C values. The T/C value (in percent) is an indication of antitumor effectiveness; T and C are the mean volumes of the treated and control groups, respectively, on a given day. TGI was calculated for each group using the formula: TGI (%)[1−(Ti−T0)/(Vi−V0)]×100; Ti is the average tumor volume of a treatment group on a given day, T0 is the average tumor volume of the treatment group on the day of treatment start, Vi is the average tumor volume of the vehicle control group on the same day with Ti, and V0 is the average tumor volume of the vehicle group on the day of treatment start.
Experimental Endpoint and Sample Collection
1). Plasma, tumor and muscle in EPZ-6438 group were collected on day 16 after the start of treatment at 6 h after dosing. Plasma, tumor and muscle in vehicle, CPI-524369, CPI-524416 and CPI-591780 groups were collected on day 25 after the start of treatment at 1 h after dosing. 2). All the blood was taken from each animal with EDTA-K2 as anticoagulant. Plasma was divided into two parts. The first part was for PK analysis; the second part was frozen for backup. 3). Tumor was divided into three parts. The first part was snap-frozen for PK; the second part was snap-frozen for PD analysis; the third part was frozen for backup. 4). Muscle was divided into two parts. The first part was snap-frozen for PK; the second part was frozen for backup.
Tumor Growth Inhibition Analysis

Where [2] appears, read: Y641N EZH2 mutant enzyme, H3K27Me2 oligonucleosomes, read-out: Y641N EZH2 IC50.
[3] abbreviates: rPRC2, biotinylated oligonucleosomes, read-out: EZH2 IC50.
[4] abbreviates: EZH2 IC50, rPRC2, biotinylated oligonucleosomes.

Like-named read-outs stand apart in the source and are kept apart here.

Sequence of EZH2 (Q15910 whole entry): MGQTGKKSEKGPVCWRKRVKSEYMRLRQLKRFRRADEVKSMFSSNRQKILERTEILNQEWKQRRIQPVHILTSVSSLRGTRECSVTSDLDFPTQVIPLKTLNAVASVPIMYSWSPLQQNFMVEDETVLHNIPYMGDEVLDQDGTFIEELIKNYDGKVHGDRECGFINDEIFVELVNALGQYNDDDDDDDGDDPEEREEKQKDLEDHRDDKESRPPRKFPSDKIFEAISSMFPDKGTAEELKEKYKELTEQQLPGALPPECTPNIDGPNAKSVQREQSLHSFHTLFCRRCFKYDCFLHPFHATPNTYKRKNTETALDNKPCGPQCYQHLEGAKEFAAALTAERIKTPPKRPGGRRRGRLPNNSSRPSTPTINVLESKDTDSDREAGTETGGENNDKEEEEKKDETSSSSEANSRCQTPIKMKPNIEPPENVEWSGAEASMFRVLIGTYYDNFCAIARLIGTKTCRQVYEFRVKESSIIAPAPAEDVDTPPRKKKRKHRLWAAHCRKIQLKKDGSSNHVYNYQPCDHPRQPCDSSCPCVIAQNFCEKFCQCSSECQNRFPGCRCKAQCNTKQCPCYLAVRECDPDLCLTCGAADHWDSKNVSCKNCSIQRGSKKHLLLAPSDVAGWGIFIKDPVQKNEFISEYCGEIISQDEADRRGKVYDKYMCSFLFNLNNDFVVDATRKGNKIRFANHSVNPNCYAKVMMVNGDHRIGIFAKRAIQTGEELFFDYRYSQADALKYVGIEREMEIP
Sequence of EZH2 (O75530 whole entry partner): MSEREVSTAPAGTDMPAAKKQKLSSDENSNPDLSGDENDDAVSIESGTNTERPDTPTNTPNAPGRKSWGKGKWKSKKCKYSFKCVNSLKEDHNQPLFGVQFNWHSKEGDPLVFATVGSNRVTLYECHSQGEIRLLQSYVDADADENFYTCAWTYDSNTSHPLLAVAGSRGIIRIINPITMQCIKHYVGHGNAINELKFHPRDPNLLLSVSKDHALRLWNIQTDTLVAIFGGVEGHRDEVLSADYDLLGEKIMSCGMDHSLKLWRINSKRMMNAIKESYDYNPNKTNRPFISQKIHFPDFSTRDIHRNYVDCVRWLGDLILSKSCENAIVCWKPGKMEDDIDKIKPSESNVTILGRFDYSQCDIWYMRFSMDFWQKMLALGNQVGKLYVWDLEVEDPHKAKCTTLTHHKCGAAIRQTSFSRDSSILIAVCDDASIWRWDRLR
Sequence of EZH2 (Q15022 whole entry partner): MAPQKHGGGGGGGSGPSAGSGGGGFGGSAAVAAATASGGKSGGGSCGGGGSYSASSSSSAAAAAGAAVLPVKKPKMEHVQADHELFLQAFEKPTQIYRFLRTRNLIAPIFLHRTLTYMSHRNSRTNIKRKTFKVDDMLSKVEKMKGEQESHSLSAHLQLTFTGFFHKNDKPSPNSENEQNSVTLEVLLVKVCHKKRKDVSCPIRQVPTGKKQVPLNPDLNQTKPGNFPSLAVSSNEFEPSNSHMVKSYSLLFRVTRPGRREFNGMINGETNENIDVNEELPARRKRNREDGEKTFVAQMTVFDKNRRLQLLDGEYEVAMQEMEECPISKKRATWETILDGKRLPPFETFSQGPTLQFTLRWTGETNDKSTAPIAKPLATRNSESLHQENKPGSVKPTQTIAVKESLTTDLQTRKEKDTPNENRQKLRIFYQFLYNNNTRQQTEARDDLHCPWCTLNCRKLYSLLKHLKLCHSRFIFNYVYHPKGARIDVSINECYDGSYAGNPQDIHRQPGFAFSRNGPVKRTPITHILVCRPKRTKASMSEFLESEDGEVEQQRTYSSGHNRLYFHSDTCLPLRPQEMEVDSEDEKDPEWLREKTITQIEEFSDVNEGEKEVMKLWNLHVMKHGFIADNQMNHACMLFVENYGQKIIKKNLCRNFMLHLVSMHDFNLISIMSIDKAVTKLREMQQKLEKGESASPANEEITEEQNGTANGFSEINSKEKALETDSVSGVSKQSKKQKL
Sequence of Y641N EZH2 (Q15910 whole entry Y641N): as the sequence (Q15910 whole entry) above, with Y641N counted along it
Sequence of Y641N EZH2 (O75530 whole entry partner): as the sequence (O75530 whole entry partner) above
Sequence of Y641N EZH2 (Q15022 whole entry partner): as the sequence (Q15022 whole entry partner) above

Turning to `COc1cc(C)[nH]c(=O)c1CNC(=O)c1c(C)n(C(C)C2CCN(C(=O)C(C)(C)O)CC2)c2ccccc12` (single isomer, unassigned) [Compound 337, (R or S)-1-(1-(1-(2-hydroxy-2-methylpropanoyl)piperidin-4-yl)ethyl)-N-((4-methoxy-6-methyl-2-oxo-1,2-dihydropyridin-3-yl)methyl)-2-methyl-1H-indole-3-carboxamide], the IC50 at Y641N EZH2 (setting [2]) and at EZH2 (setting [3]) was less than 0.1 µM each time.

`Cc1cc(C)c(CNC(=O)c2c(C)n(C(C)C3CCN(C4COC4)CC3)c3ccccc23)c(=O)[nH]1` (single isomer, unassigned) [Compound 375, (R or S)-N-((4,6-dimethyl-2-oxo-1,2-dihydropyridin-3-yl)methyl)-2-methyl-1-(1-(1-(oxetan-3-yl)piperidin-4-yl)ethyl)-1H-indole-3-carboxamide]: the half-inhibitory concentration (IC50) on Y641N EZH2 and against EZH2 (setting [4]) was less than 0.1 µM throughout.

For the molecule `Cc1cc(OC(F)F)c(CNC(=O)c2c(C)n(C(C)C3CCN(S(C)(=O)=O)CC3)c3ccccc23)c(=O)[nH]1` (single isomer, unassigned) [Compound 344, (R or S)-N-((4-(difluoromethoxy)-6-methyl-2-oxo-1,2-dihydropyridin-3-yl)methyl)-2-methyl-1-(1-(1-(methylsulfonyl)piperidin-4-yl)ethyl)-1H-indole-3-carboxamide], the IC50 at Y641N EZH2 (setting [2]) and on EZH2 (setting [3]) was less than 0.1 µM in each case.

`COc1cc(C)[nH]c(=O)c1CNC(=O)c1c(C)n(C(C)C2CCN(CC(F)F)CC2)c2ccccc12` (single isomer, unassigned) [Compound 362, (R or S)-1-(1-(1-(2,2-difluoroethyl)piperidin-4-yl)ethyl)-N-((4-methoxy-6-methyl-2-oxo-1,2-dihydropyridin-3-yl)methyl)-2-methyl-1H-indole-3-carboxamide]: in experiment [1], the “TGI (%)” value is 92.75%, the “T/C (%)” value was 22.59%, the “Tumor Size (mm3) on day 25” value is reported as 385 ± 66 mm3 and the Significance entry is “*** (*** p < 0.001)”.

In the case of `COc1cc(C)[nH]c(=O)c1CNC(=O)c1c(C)n(C(C)C2CCN(C(=O)C(C)C)CC2)c2ccccc12` (single isomer, unassigned) [Compound 342, (R or S)-1-(1-(1-isobutyrylpiperidin-4-yl)ethyl)-N-((4-methoxy-6-methyl-2-oxo-1,2-dihydropyridin-3-yl)methyl)-2-methyl-1H-indole-3-carboxamide], the IC50 at Y641N EZH2 (setting [2]) and on EZH2 (setting [3]) was less than 0.1 µM throughout.

As to `CCc1cc(C)[nH]c(=O)c1CNC(=O)c1c(C)n(C(C)C2CCN(C)CC2)c2ccccc12` (single isomer, unassigned) [Compound 366, (R or S)-N-((4-ethyl-6-methyl-2-oxo-1,2-dihydropyridin-3-yl)methyl)-2-methyl-1-(1-(1-methylpiperidin-4-yl)ethyl)-1H-indole-3-carboxamide], the IC50 against Y641N EZH2 and against EZH2 (setting [4]) was less than 0.1 µM in each case.

Regarding `COc1cc(C)[nH]c(=O)c1CNC(=O)c1c(C)n(C(C)C2CCN(C3COC3)CC2)c2ccccc12` (single isomer, unassigned) [Compound 341, (R or S)-N-((4-methoxy-6-methyl-2-oxo-1,2-dihydropyridin-3-yl)methyl)-2-methyl-1-(1-(1-(oxetan-3-yl)piperidin-4-yl)ethyl)-1H-indole-3-carboxamide], the IC50 against Y641N EZH2 and against EZH2 (setting [4]) was less than 0.1 µM each time.

Consider `COc1cc(C)[nH]c(=O)c1CNC(=O)c1c(C)n(C(C)C2CCN(S(C)(=O)=O)CC2)c2ccccc12` (single isomer, unassigned) [Compound 336, (R or S)-N-((4-methoxy-6-methyl-2-oxo-1,2-dihydropyridin-3-yl)methyl)-2-methyl-1-(1-(1-(methylsulfonyl)piperidin-4-yl)ethyl)-1H-indole-3-carboxamide], for which the IC50 on Y641N EZH2 (setting [2]) and on EZH2 (setting [3]) was less than 0.1 µM throughout.

With `COc1cc(C)[nH]c(=O)c1CNC(=O)c1c(C)n(C(C)C2CCN(CC(F)(F)F)CC2)c2ccccc12` (single isomer, unassigned) [Compound 365, (R or S)-N-((4-methoxy-6-methyl-2-oxo-1,2-dihydropyridin-3-yl)methyl)-2-methyl-1-(1-(1-(2,2,2-trifluoroethyl)piperidin-4-yl)ethyl)-1H-indole-3-carboxamide], in experiment [1], the “TGI (%)” value is 97.25%, the “T/C (%)” value is 18.72%, the “Tumor Size (mm3) on day 25” value is reported as 319 ± 67 mm3 and the Significance entry is recorded as “*** (*** p < 0.001)”.

In the case of `COCCN1CCC(C(C)n2c(C)c(C(=O)NCc3c(OC)cc(C)[nH]c3=O)c3ccccc32)CC1` (single isomer, unassigned) [Compound 359, (R or S)-N-((4-methoxy-6-methyl-2-oxo-1,2-dihydropyridin-3-yl)methyl)-1-(1-(1-(2-methoxyethyl)piperidin-4-yl)ethyl)-2-methyl-1H-indole-3-carboxamide], the IC50 against Y641N EZH2 and against EZH2 (setting [4]) was less than 0.1 µM each time.

`COc1cc(C)[nH]c(=O)c1CNC(=O)c1c(C)n(C(C)C(C)OC)c2ncccc12` (single isomer, unassigned) [Compound 266, N-((4-methoxy-6-methyl-2-oxo-1,2-dihydropyridin-3-yl)methyl)-1-((2R or 2S, 3R or 3S)-3-methoxybutan-2-yl)-2-methyl-1H-pyrrolo[2,3-b]pyridine-3-carboxamide] displayed an IC50 on Y641N EZH2 of 0.1 to 1 µM.
